Consider 25 compounds from US5478939A, “(R,R) and (S,S) 2,5-diazabicyclo [2,2,1]heptane derivatives” (priority 1994, dated 1995).

The target of test [1] is muscarinic cholinergic receptor (high affinity agonist conformation). Description: [3H]-cis-Methyldioxolane (3H-CD) Binding Assay (High Affinity), cerebral cortex. Particulars: 3H-CD 1.0 nM, rat cerebral cortex, 25° C., 120 minutes, pH 7.4; read-out: Ki, ^3 H-CD (ctx).
For test [2], the target named is muscarinic cholinergic receptor. The test can be described thus: [3H] Quinuclidinyl Benzilate (QNB) Binding Assay, cerebral cortex. The conditions noted are these: 3H-QNB 0.25 nM, rat cerebral cortex, 25° C., 120 minutes, pH 7.4; read-out: Ki, ^3 H-QNB (ctx).

The Ki is a measure of affinity in units of concentration, obtained from inhibition or displacement.

SMILES strings stand for the structures. Counter-ions that a name gives are not always drawn.

As for `CC(C)(C)OC(=O)N1C[C@H]2C[C@@H]1CN2c1cnccn1` [Example 3, (R,R)-2-(tert-Butyloxycarbonyl)-5-(2-pyrazinyl)-2,5-diazabicyclo[2.2.1]heptane], in test [1], the inhibition constant Ki is over 1000 µM.
Take `Cc1nsc(N2C[C@H]3C[C@@H]2CN3C(=O)OC(C)(C)C)n1` [Example 5]: the inhibition constant (Ki) was over 1000 µM in test [2] and 59 µM in test [1].
`CC(C)(C)OC(=O)N1C[C@H]2C[C@@H]1CN2c1ncns1` [Example 7]: in test [1], the Ki was over 1000 µM.
In the case of `CC(C)(C)OC(=O)N1C[C@@H]2C[C@H]1CN2c1ncns1` [Example 8, (S,S)-2-(tert-Butyloxycarbonyl)-5-(1,2,4-thiadiazol-5-yl)-2,5-diazabicyclo[2.2.1]heptane], the inhibition constant (Ki) in test [1] turned out to be 97 µM.
Same read-out and setting: then `Cc1noc(N2C[C@H]3C[C@@H]2CN3C(=O)OC(C)(C)C)n1` [Example 9, (R,R)-2-(tert-Butyloxycarbonyl)-5-(3-methyl-1,2,4-oxadiazol-5-yl)-2,5-diazabicyclo[2.2.1]heptane], with 18.2 µM; and `Cc1noc(N2C[C@@H]3C[C@H]2CN3C(=O)OC(C)(C)C)n1` [Example 10], with 43.2 µM.
Turning to `c1cnc(N2C[C@H]3C[C@@H]2CN3)cn1` [Example 11, (R,R)-2-(2-Pyrazinyl)-2,5-diazabicyclo[2.2.1]heptane hydrochloride], the inhibition constant (Ki) stood at 3.1 µM in test [2] and 0.1 µM in test [1].
The matching figures for `c1cnc(N2C[C@@H]3C[C@H]2CN3)cn1` [Example 12, (S,S)-2-(2-Pyrazinyl)-2,5-diazabicyclo[2.2.1]heptane hydrochloride]: 11.4 µM and 1.3 µM.
`Cc1nsc(N2C[C@@H]3C[C@H]2CN3)n1` [Example 13, (S,S)-2-(3-Methyl-1.2,4-thiadiazol-5-yl)-2,5-diazabicyclo[2.2.1]heptane]: the inhibitory constant (Ki) in test [1] was found to be 13 µM.
With `Cc1nsc(N2C[C@H]3C[C@@H]2CN3)n1` [Example 14, (R,R)-2-(3-Methyl-1,2,4-thiadiazol-5-yl)-2,5-diazabicyclo[2.2.1]heptane], the results for the inhibition constant (Ki) in test [2] and in test [1] were 24.7 µM and 0.9 µM, respectively.
In the same order, the values of `c1nsc(N2C[C@@H]3C[C@H]2CN3)n1` [Example 15, (S,S)-2-(1,2,4-Thiadiazol-5-yl)-2,5-diazabicyclo[2.2.1]heptane] are over 1000 µM and 29.5 µM.
In the same order, the values of `c1nsc(N2C[C@H]3C[C@@H]2CN3)n1` [Example 16, (R,R)-2-(1,2,4-Thiadiazol-5-yl) -2,5-diazabicyclo[2.2.1]heptane] are over 1000 µM and 0.3 µM.
In the same order, the values of `Cc1noc(N2C[C@@H]3C[C@H]2CN3)n1` [Example 17, (S,S)-2-(3-Methyl-1,2,4-oxadiazol-5-yl)-2,5-diazabicyclo[2.2.1]heptane] are over 1000 µM and 5.4 µM.
As to `Cc1noc(N2C[C@H]3C[C@@H]2CN3)n1` [Example 18, (R,R)-2-(3-Methyl-1,2,4-oxadiazol-5-yl)-2,5-diazabicyclo[2.2.1]heptane], the figures for the inhibition constant Ki in test [2] and in test [1] were 47.2 µM and 0.4 µM, respectively.
The matching figures for `CN1C[C@@H]2C[C@H]1CN2c1cnccn1` [Example 19, (S,S)-2-Methyl-5-(2-pyrazinyl)-2,5-diazabicyclo[2.2.1]heptane]: 5.5 µM and 0.4 µM.
Consider `Cc1cnc(C)c(N2C[C@@H]3C[C@H]2CN3C)n1` [Example 22, (S,S)-2-(3,6-Dimethylpyrazin-2-yl)-5-methyl-2,5-diazabicyclo[2,2.1]heptane], for which the inhibition constant Ki in test [2] is 1.2 µM; in test [1] it was 0.7 µM.
With `CN1C[C@@H]2C[C@H]1CN2c1nccnc1Cl` [Example 23, (S,S)-2-(3-Chloropyrazin-2-yl)-5-methyl-2,5-diazabicyclo[2.2.1]heptane], the Ki in test [2] is 2.3 µM; in test [1] it was 0.9 µM.
Regarding `CN1C[C@@H]2C[C@H]1CN2c1cncc(Cl)n1` [Example 24, (S,S)-2-(6-Chloropyrazin-2-yl)-5-methyl-2.5-diazabicyclo[2.2.1]heptane], the inhibition constant Ki in test [2] was 4.5 µM; in test [1], 2 µM.
As for `Cc1nsc(N2C[C@@H]3C[C@H]2CN3C)n1` [Example 26, (S,S)-2-Methyl-5-(3-methyl-1,2,4-thiadiazol-5-yl)-2,5-diazabicyclo[2.2.1]heptane], the results for the inhibitory constant (Ki) in test [2] and in test [1] were 0.5 µM and 0.2 µM, respectively.
As to `CN1C[C@@H]2C[C@H]1CN2c1sccc1[N+](=O)[O-]` [Example 28, (S,S)-2-Methyl-5-(3-nitro-2-thienyl)-2,5-diazabicyclo[2.2.1]heptane], the inhibition constant Ki in test [2] is over 1000 µM; in test [1] it was 9.8 µM.
With `CN1C[C@@H]2C[C@H]1CN2c1ccc([N+](=O)[O-])s1` [Example 29, (S,S)-2-Methyl-5-(5-nitro-2-thienyl)-2,5-diazabicyclo[2.2.1]heptane], the Ki in test [2] was 13.2 µM; in test [1], 6.8 µM.
The matching figures for `CN1C[C@@H]2C[C@H]1CN2c1ccccc1[N+](=O)[O-]` [Example 30, (S,S)-2-Methyl-5-(2-nitrophenyl)-2,5-diazabicyclo[2.2.1]heptane]: 1.6 µM and 1.1 µM.
With `COc1cncc(N2C[C@@H]3C[C@H]2CN3C)n1` [Example 32, (S,S)-2-Methyl-5-(6-methoxypyrazin-2-yl)-2,5-diazabicyclo[2.2.1]heptane], the Ki in test [2] came out at 0.4 µM; in test [1], 0.3 µM.
As for `Cc1nccnc1N1C[C@@H]2C[C@H]1CN2C` [Example 35, (S,S)-2-Methyl-5-(3-methylpyrizin-2-yl)-2,5-diazabicyclo[2.2.1]heptane], the inhibitory constant (Ki) in test [2] was found to be 6.3 µM; in test [1], 1.7 µM.
In the case of `CN1C[C@H]2C[C@@H]1CN2c1cnccn1` [Example 36, (R,R)-2-Methyl-5-(2-pyrazinyl)-2,5-diazabicyclo[2.2.1]heptane], the inhibition constant (Ki) was over 1000 µM in test [2] and 6.4 µM in test [1].
